Tests used:
[1] = target: T1, NTF2L domain of G3BP1 (residues 1–138) (Homo sapiens, UniProt Q13283); experiment: Isothermal titration calorimetry (ITC) of peptides with NTF2L; type: binding; settings: for n, molar ratio: 20°C
T1 construct: 6xHis tag with TEV protease cleavage site (N, cleaved yes); made in house; host or cells: Escherichia coli BL21 (DE3)

NTF2L domain of G3BP1 [2] = experiment: SEC-MALS of peptide–NTF2L complexes; type: physicochemical, human; settings: ~2 mg/mL in PBS pH 7.4, Superdex 200 Increase 10/300 GL; for M.W., molecular weight of the peptide–NTF2L complex: 0.5 mL/min, value given in figure
NTF2L domain of G3BP1 [3] = experiment: Size-exclusion chromatography (SEC) of NTF2L incubated with peptide: high-order oligomer formation; type: binding, human; settings: peptide mixed with NTF2L, incubated at 4°C overnight, Superdex 200 Increase 10/300 GL
endogenous G3BP1 = experiment: Co-immunoprecipitation with endogenous G3BP1 in HEK293T cells; type: cell-based; settings: Co-IP, Flag magnetic beads, HEK293T cells lysed 36 h after transfection (3xFlag-mCherry constructs)
Protocol: HEK293T cells were seeded into a six-well cell culture plate and then transfected with the recombinant plasmids using TransIntro PEI Transfection Reagent (TransGen Biotech, FT401-01). Thirty-six hours after transfection, the cells were lysed with cell lysis buffer (Beyotime, P0013J) supplemented with proteinase inhibitor phenylmethylsulfonyl fluoride (Solarbio, P8340). Cell lysates were then centrifuged, and the supernatants were immunoprecipitated with Flag magnetic beads (LABLEAD, PFM025). Beads were washed three times with washing buffer (50 mM Tris-HCl, 500 mM NaCl, 0.1% Triton X-100, 1 mM EDTA, pH 7.5). Cell lysates or immunoprecipitants were analyzed with immunoblotting.
The proteins were then transferred to polyvinylidene fluoride membranes. Membranes were blocked for 4 h with 5% non-fat dry milk solution in Tris-buffered saline containing 0.1% Tween-20 (TBST) and then incubated with primary antibodies mouse anti-G3BP1 (Santa Cruz, sc-365338), mouse anti-Flag (Proteintech, 66008-4-Ig), and rabbit anti-β-actin (Proteintech, 81115-1-RR) overnight at 4°C. The membranes were washed with TBST and then incubated with the corresponding secondary antibodies. Proteins were visualized by SuperKine West Femto Maximum Sensitivity Substrate according to the manufacturer’s instruction (Abbkine, BMU102).

lung cancer cell = settings: through targeting G3BP1; cited from earlier work
SARS-CoV-2 = settings: cited from earlier work

T1 sequence (Q13283 1-138): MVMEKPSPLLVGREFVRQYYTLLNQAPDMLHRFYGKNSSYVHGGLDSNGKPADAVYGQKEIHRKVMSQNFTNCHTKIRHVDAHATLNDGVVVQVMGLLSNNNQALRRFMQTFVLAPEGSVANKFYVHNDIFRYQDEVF

CC[C@H](C)[C@H](NC(=O)[C@H](CCC(=O)O)NC(=O)CNC(=O)[C@H](CC(=O)O)NC(=O)[C@H](CC(N)=O)NC(=O)[C@H](Cc1ccccc1)NC(=O)[C@H](CC(=O)O)NC(=O)CNC(=O)[C@H](Cc1ccccc1)NC(=O)[C@@H](NC(=O)[C@@H](NC(=O)[C@@H]1CCCN1C(=O)[C@H](Cc1ccccc1)NC(=O)[C@@H](NC(=O)[C@H](CCC(=O)O)NC(=O)[C@H](CO)NC(=O)CNC(=O)[C@H](CC(C)C)NC(=O)[C@@H]1CCCN1C(=O)CN)[C@@H](C)O)[C@@H](C)CC)[C@@H](C)O)C(=O)N[C@@H](CCC(=O)O)C(=O)N[C@@H](CO)C(=O)N[C@@H](CC(C)C)C(=O)N[C@@H](CO)C(=O)N[C@@H](CO)C(=O)N[C@@H](CCC(=O)O)C(=O)N[C@@H](CC(C)C)C(=O)N[C@@H](CC(C)C)C(=O)N[C@H](C(=O)N[C@@H](Cc1ccccc1)C(=O)NCC(=O)N[C@@H](CC(=O)O)C(=O)N[C@@H](Cc1ccccc1)C(=O)N[C@@H](CC(C)C)C(=O)N1CCC[C@H]1C(=O)NCC(=O)N[C@@H](C)C(=O)N[C@H](C(=O)N[C@@H](C)C(=O)N[C@@H](CC(=O)O)C(=O)N[C@@H](CC(C)C)C(=O)N[C@H](C(=O)N[C@@H](CC(=O)O)C(=O)N[C@@H](CO)C(=O)N[C@@H](CC(=O)O)C(=O)N[C@@H](Cc1c[nH]c2ccccc12)C(=O)N[C@@H](CO)C(=O)N[C@H](C(=O)N[C@@H](Cc1c[nH]cn1)C(=O)N[C@@H](Cc1c[nH]cn1)C(=O)N[C@@H](Cc1c[nH]cn1)C(=O)N[C@@H](Cc1c[nH]cn1)C(=O)N[C@@H](Cc1c[nH]cn1)C(=O)N[C@@H](Cc1c[nH]cn1)C(=O)O)[C@@H](C)O)[C@@H](C)O)C(C)C)[C@@H](C)O [CHIKV-43 mut]
n, molar ratio ([1]; HEPES buffer pH 7.5, 200 µM peptide injected into 40 µM NTF2L): 0.6 ± 0.02
fold reduction of binding affinity with NTF2L ([1]; compared to that of CHIKV-43 with NTF2L): ~ 15 fold
M.W., molecular weight of the peptide–NTF2L complex (NTF2L domain of G3BP1 [2]): 58.7 ± 0.42 kDa

CC[C@H](C)[C@H](NC(=O)[C@H](CCC(=O)O)NC(=O)CNC(=O)[C@H](CC(=O)O)NC(=O)[C@H](CC(N)=O)NC(=O)[C@H](Cc1ccccc1)NC(=O)[C@H](CC(=O)O)NC(=O)CNC(=O)[C@H](Cc1ccccc1)NC(=O)[C@@H](NC(=O)[C@@H](NC(=O)[C@@H]1CCCN1C(=O)[C@H](Cc1ccccc1)NC(=O)[C@@H](NC(=O)[C@H](CCC(=O)O)NC(=O)[C@H](CO)NC(=O)CNC(=O)[C@H](CC(C)C)NC(=O)[C@@H]1CCCN1C(=O)CN)[C@@H](C)O)[C@@H](C)CC)[C@@H](C)O)C(=O)N[C@@H](CCC(=O)O)C(=O)N[C@@H](CO)C(=O)N[C@@H](CC(C)C)C(=O)N[C@@H](CO)C(=O)N[C@@H](CO)C(=O)N[C@@H](CCC(=O)O)C(=O)N[C@@H](CC(C)C)C(=O)N[C@@H](CC(C)C)C(=O)N[C@H](C(=O)N[C@@H](Cc1ccccc1)C(=O)NCC(=O)N[C@@H](CC(=O)O)C(=O)N[C@@H](Cc1ccccc1)C(=O)N[C@@H](CC(C)C)C(=O)N1CCC[C@H]1C(=O)NCC(=O)N[C@@H](CCC(=O)O)C(=O)N[C@H](C(=O)N[C@@H](CC(=O)O)C(=O)N[C@@H](CC(=O)O)C(=O)N[C@@H](CC(C)C)C(=O)N[C@H](C(=O)N[C@@H](CC(=O)O)C(=O)N[C@@H](CO)C(=O)N[C@@H](CC(=O)O)C(=O)N[C@@H](Cc1c[nH]c2ccccc12)C(=O)N[C@@H](CO)C(=O)N[C@H](C(=O)N[C@@H](Cc1c[nH]cn1)C(=O)N[C@@H](Cc1c[nH]cn1)C(=O)N[C@@H](Cc1c[nH]cn1)C(=O)N[C@@H](Cc1c[nH]cn1)C(=O)N[C@@H](Cc1c[nH]cn1)C(=O)N[C@@H](Cc1c[nH]cn1)C(=O)O)[C@@H](C)O)[C@@H](C)O)C(C)C)[C@@H](C)O [CHIKV-43]
n, molar ratio ([1]; HEPES buffer pH 7.5, 50 µM peptide injected into 10 µM NTF2L): 0.6 ± 0.002
M.W., molecular weight of the peptide–NTF2L complex (NTF2L domain of G3BP1 [2]): 314.1 ± 0.28 kDa
approximate M.W. of the peptide–NTF2L complex (NTF2L domain of G3BP1 [2]; rounded value of text): approximately 310 kDa
SEC peak / high-order oligomer formation with NTF2L (NTF2L domain of G3BP1 [3]): formed a stable peak
interaction with endogenous G3BP1 (endogenous G3BP1): obviously interact with G3BP1

O=C(O[C@@H]1Cc2c(O)cc(O)cc2O[C@@H]1c1cc(O)c(O)c(O)c1)c1cc(O)c(O)c(O)c1 [Epigallocatechin gallate]
effect on lung cancer cell growth (lung cancer cell): inhibits lung cancer cell growth

Cc1ccc(NC(=O)c2ccc(CN3CCN(C)CC3)cc2)cc1Nc1nccc(-c2cccnc2)n1 [imatinib]
inhibition of SARS-CoV-2 propagation (SARS-CoV-2): inhibit SARS-CoV-2 propagation

Nc1ncn([C@H]2C[C@H](O)[C@@H](CO)O2)c(=O)n1 [decitabine]
inhibition of SARS-CoV-2 propagation (SARS-CoV-2): inhibit SARS-CoV-2 propagation
